In assay [1] the test system is NCI-H358 cells (KRAS G12C mutant). The assay can be described thus: NCI-H358 cell proliferation inhibition (CellTiter-Glo). Type of assay: cell-based. The note with it: H358 cells (G12C mutation), 3 days, Table 6, read-out: NCI-H358 (IC50). A general note: ATP-based viability assays read luminescence as a measure of living cells.
The test system of assay [2] is MIA PaCa-2-AMGR drug-resistant cell line. The assay can be described thus: MIA PaCa-2-AMGR drug-resistant cell proliferation inhibitory activity test. The note with it: MIA PaCa-2-AMGR drug-resistant cells, 3 days incubation, CellTiter-Glo. Type of assay: cell-based. The procedure, abridged: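 MIA PaCa-2 line made resistant by stepwise AMG510 exposure up to 1 μM. Cells seeded at 4×10^3/well overnight, then treated with 8 concentrations (5-fold dilutions) for 3 days at 37° C, 5% CO2 in DMEM with 10% FBS + 2.5% horse serum. Viability by CellTiter-Glo luminescence; IC50 versus no-inhibitor control.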

Like-named read-outs stand apart in the source and are kept apart here.

As to `COc1ncc(-c2ccc3ncnc(N4CCN(C(=O)/C=C/C(C)=O)CC4)c3n2)cc1NS(=O)(=O)c1c(Cl)cncc1Cl` [Example 224, (E)-3,5-dichloro-N-(2-methoxy-5-(4-(4-(4-oxopent-2-enoyl)piperazin-1-yl)pyrido[3,2-d]pyrimidin-6-yl)pyridin-3-yl) pyridine-4-sulfonamide], the half-inhibitory concentration (IC50) (commonly the concentration that gives 50% inhibition) in assay [1] (Homo sapiens, NCI-H358, 72 h) came to 88.1 nM; in assay [2] (72 h), 144 nM.

`COc1ncc(-c2ccc3ncnc(N4CCN(C(=O)/C=C/C(C)=O)CC4)c3c2)cc1NS(=O)(=O)c1sc(C)nc1C` [Example 160, (E)-N-(2-methoxy-5-(4-(4-(4-oxopent-2-enoyl)piperazin-1-yl)quinazolin-6-yl)pyridin-3-yl)-2,4-dimethylthiazole-5-sulfonamide]: the half-inhibitory concentration (IC50) is 13 nM in assay [1] (Homo sapiens, NCI-H358, 72 h) and 53.8 nM in assay [2] (72 h).

In the case of `COc1ncc(-c2ccc3ncnc(N4CCN(C(=O)/C=C/C(C)=O)CC4)c3c2)cc1NS(=O)(=O)c1ccc(C)cc1F` [Example 111], the IC50 came out at 15.8 nM in assay [1] and 90.1 nM in assay [2].

On to `COc1ncc(-c2ccc3ncnc(N4CCC5(CC4)CN(C(=O)/C=C/C(C)=O)C5)c3c2)cc1NS(=O)(=O)c1ccc(F)cc1F` [Example 20, (E)-2,4-difluoro-N-(2-methoxy-5-(4-(2-(4-oxopent-2-enoyl)-2,7-diazaspiro[3.5]nonan-7-yl)quinazolin-6-yl)pyridin-3-yl)benzenesulfonamide], for which the IC50 in assay [1] (Homo sapiens, NCI-H358, 72 h) was 26.2 nM; in assay [2] (72 h) it was 111 nM.

Turning to `COc1ncc(-c2ccc3ncnc(N4CCC5(CC4)CN(C(=O)/C=C/C(C)=O)C5)c3c2)cc1NS(=O)(=O)c1sc(C)nc1C` [Example 178, (E)-N-(2-methoxy-5-(4-(2-(4-oxopent-2-enoyl)-2,7-diazaspiro[3.5]nonan-7-yl)quinazolin-6-yl)pyridin-3-yl)-2,4-dimethyl-thiazole-5-sulfonamide], the IC50 came to 25.3 nM in assay [1] (Homo sapiens, NCI-H358, 72 h) and 34 nM in assay [2] (72 h).

`COc1ncc(-c2ccc3ncnc(N4CCN(C(=O)/C=C/C(C)=O)C[C@@H]4C)c3c2)cc1NS(=O)(=O)c1ccccc1F` [Example 152, (S,E)-2-fluoro-N-(2-methoxy-5-(4-(2-methyl-4-(4-oxopent-2-enoyl)piperazin-1-yl)quinazolin-6-yl)pyridin-3-yl)benzenesulfonamide]: the IC50 in assay [1] (Homo sapiens, NCI-H358, 72 h) amounted to 29.8 nM; in assay [2] (72 h), 52.1 nM.

`COc1ncc(-c2ccc3ncnc(N4CCN(C(=O)/C=C/C(C)=O)CC4)c3n2)cc1NS(=O)(=O)c1c(F)cncc1F` [Example 210, (E)-3,5-difluoro-N-(2-methoxy-5-(4-(4-(4-oxopent-2-enoyl)piperazin-1-yl)pyrido[3,2-d]pyrimidin-6-yl)pyridin-3-yl)pyridine-4-sulfonamide]: the half-maximal inhibitory concentration (IC50) in assay [1] (Homo sapiens, NCI-H358, 72 h) was found to be 53.4 nM; in assay [2] (72 h), 97.4 nM.

For `COc1ncc(-c2ccc3ncnc(C4=CCN(C(=O)/C=C/C(C)=O)CC4)c3c2)cc1NS(=O)(=O)c1ccccc1F` [Example 200, (E)-2-fluoro-N-(2-methoxy-5-(4-(1-(4-oxopent-2-enoyl)-1,2,3,6-tetrahydropyridin-4-yl)quinazolin-6-yl)pyridin-3-yl)benzene-sulfonamide], the IC50 was determined as 10.9 nM in assay [1] (Homo sapiens, NCI-H358, 72 h) and 4.3 nM in assay [2] (72 h).

Take `COc1ncc(-c2ccc3ncnc(N4CC5CCC(C4)N5C(=O)/C=C/C(C)=O)c3c2)cc1NS(=O)(=O)c1c(F)cc(F)cc1F` [Example 155]: the half-maximal inhibitory concentration (IC50) in assay [1] (Homo sapiens, NCI-H358, 72 h) stood at 40.3 nM; in assay [2] (72 h), 112 nM.

As to `COc1ncc(-c2ccc3ncnc(N4CCN(C(=O)/C=C/C(C)=O)CC4)c3c2)cc1NS(=O)(=O)c1ccccc1F` [Example 91, (E)-2-fluoro-N-(2-methoxy-5-(4-(4-(4-oxopent-2-enoyl)piperazin-1-yl)quinazolin-6-yl)pyridin-3-yl)benzenesulfonamide], the 50% inhibitory concentration (IC50) amounted to 17.8 nM in assay [1] (Homo sapiens, NCI-H358, 72 h) and 79.8 nM in assay [2] (72 h).

For `COc1ncc(-c2ccc3ncnc(C4CCN(C(=O)/C=C/C(C)=O)CC4)c3c2)cc1NS(=O)(=O)c1sc(C)nc1C` [Example 203, (E)-N-(2-methoxy-5-(4-(1-(4-oxopent-2-enoyl)piperidin-4-yl)quinazolin-6-yl)pyridin-3-yl)-2,4-dimethylthiazole-5-sulfonamide], the IC50 came to 8.5 nM in assay [1] (Homo sapiens, NCI-H358, 72 h) and 16.7 nM in assay [2] (72 h).

As for `COc1ncc(-c2ccc3ncnc(N4CCN(C(=O)/C=C/C(C)=O)CC4)c3c2)cc1NS(=O)(=O)c1ccncc1C` [Example 172, (E)-N-(2-methoxy-5-(4-(4-(4-oxopent-2-enoyl)piperazin-1-yl)quinazolin-6-yl)pyridin-3-yl)-3-methyl-pyridine-4-sulfonamide], the IC50 in assay [1] (Homo sapiens, NCI-H358, 72 h) stood at 68.1 nM; in assay [2] (72 h), 256 nM.

For the origin of these results see US20250145589A1, “PYRIDINE DERIVATIVE AND USE THEREOF” (SICHUAN HUIYU PHARMACEUTICAL CO., LTD., priority 2021, published 2025).
